How the values were obtained:
Sortilin [1] = biological target: T1, Sortilin (Homo sapiens, UniProt Q99523); experiment: Creoptix (GCI) binding kinetics, human Sortilin; conditions: Species Human, screened at 1 µM, 25 degrees Celsius
T1 construct: purchased Bio-Techne Ltd 3154-ST-050
T1 sequence (Q99523 78-755 limits assumed): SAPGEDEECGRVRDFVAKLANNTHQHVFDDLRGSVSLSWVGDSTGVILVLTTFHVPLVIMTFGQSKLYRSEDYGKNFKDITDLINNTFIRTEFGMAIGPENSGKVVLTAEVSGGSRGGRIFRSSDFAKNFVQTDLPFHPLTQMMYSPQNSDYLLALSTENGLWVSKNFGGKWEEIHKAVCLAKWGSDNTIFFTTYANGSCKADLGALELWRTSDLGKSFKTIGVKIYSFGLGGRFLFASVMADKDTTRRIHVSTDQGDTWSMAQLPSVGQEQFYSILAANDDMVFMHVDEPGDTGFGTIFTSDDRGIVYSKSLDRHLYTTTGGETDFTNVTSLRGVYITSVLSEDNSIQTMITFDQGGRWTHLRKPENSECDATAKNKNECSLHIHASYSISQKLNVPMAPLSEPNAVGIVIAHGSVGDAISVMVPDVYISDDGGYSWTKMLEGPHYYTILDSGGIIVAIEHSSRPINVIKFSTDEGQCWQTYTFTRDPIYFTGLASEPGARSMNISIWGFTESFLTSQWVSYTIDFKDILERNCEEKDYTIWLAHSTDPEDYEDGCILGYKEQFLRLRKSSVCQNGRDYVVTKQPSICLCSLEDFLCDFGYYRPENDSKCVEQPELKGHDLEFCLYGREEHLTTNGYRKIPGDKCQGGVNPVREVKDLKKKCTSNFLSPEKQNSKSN
Procedure: (§1) Creoptix (GCI) method - using SEQ ID NO.4 (Murine sortillin)
(§2) A protein, bound to a surface, is bathed in a solution containing potential ligands giving rise to binding kinetics to generate Kon and Koff rates, as well as a Kd.
(§3) All buffers described were filtered using a 0.2µm filter (Product number: 10300461, Nalgene) and degassed for 15 minutes prior to use.
(§4) A flow cell temperature of 25 degrees Celsius was used throughout the experiment.
(§5) A 4PCH chip was conditioned across all flow cells using 0.2 X concentration running buffer (running buffer composition: 1XHBS-N, pH 7.4, 3.4 mM EDTA, 1% DMSO) using pre-set conditioning wizard (WAVE control software) injecting: 0.1 M borate, 1 M NaCl (pH 9) followed by three start-up injections of 0.2 X running buffer.
(§6) A buffer exchange was performed and 1x running buffer (1XHBS-N, pH 7.4, 3.4 mM EDTA, 1% DMSO) used during the immobilisation procedure: An initial injection of EDC/NHS (mixed in 1:1 ratio) was performed across all 4-flow cells to activate the surface for amine coupling of ligands.
(§7) Recombinant Sortilin aliquots were thawed quickly by hand and centrifuged at 13,300 rpm for 10 minutes. A 10 µg/ml protein solution was then made in pH 5.0 acetate and injected once for 20 minutes over flow-cells 2, 3 and 4 for human, human (flow cells 2 & 3), and mouse Sortilin respectively followed by a 60 second dissociation period.
(§8) A final 7-minute passivation injection of 50 mM tris was used across all flow cells.
(§9) A flow rate of 10 µl/min was used for all conditioning and immobilisation cycles.
(§10) Compounds were screened at 1 µM using the in-built 'intermediate binders' settings: 100 ul/min, 45 s baseline, 25 s association, 300 s dissociation, with blanks every 5th sample and a DMSO correction (1.5 % DMSO at the start and end of the experiment as well as every 20 cycles. An acquisition rate of 10 Hz was used throughout the experiment.
(§11) Compounds were screened at a final assay concentration of 1 µM and a final DMSO concentration was 1 %. To achieve this, compounds were diluted in DMSO from 10 mM stocks to 100 µM (100 x final assay concentration) then diluted 1:100 in running buffer which contained no DMSO to establish a final assay concentration of compound of 1 µM and a final DMSO concentration of 1 % [DMSO].
(§12) Compounds and DMSO were mixed by plate shaking at 1000 rpm for 60 seconds using a Bioshake instrument.
(§13) A flow rate of 100 µl/min was used throughout the experiment.
(§14) Data was evaluated using the RAPID kinetic analysis tool in the GCI WAVE_control software with data fitted using a standard 1:1 kinetic BioModel.

Sortilin [2] = biological target: T2, Sortilin (Mus musculus, UniProt Q6PHU5); experiment: Creoptix (GCI) binding kinetics, mouse Sortilin; conditions: Species Mouse, screened at 1 µM, 25 degrees Celsius
T2 construct: purchased Bio-Techne Ltd 2934-ST-050
T2 sequence (Q6PHU5 76-753 limits assumed): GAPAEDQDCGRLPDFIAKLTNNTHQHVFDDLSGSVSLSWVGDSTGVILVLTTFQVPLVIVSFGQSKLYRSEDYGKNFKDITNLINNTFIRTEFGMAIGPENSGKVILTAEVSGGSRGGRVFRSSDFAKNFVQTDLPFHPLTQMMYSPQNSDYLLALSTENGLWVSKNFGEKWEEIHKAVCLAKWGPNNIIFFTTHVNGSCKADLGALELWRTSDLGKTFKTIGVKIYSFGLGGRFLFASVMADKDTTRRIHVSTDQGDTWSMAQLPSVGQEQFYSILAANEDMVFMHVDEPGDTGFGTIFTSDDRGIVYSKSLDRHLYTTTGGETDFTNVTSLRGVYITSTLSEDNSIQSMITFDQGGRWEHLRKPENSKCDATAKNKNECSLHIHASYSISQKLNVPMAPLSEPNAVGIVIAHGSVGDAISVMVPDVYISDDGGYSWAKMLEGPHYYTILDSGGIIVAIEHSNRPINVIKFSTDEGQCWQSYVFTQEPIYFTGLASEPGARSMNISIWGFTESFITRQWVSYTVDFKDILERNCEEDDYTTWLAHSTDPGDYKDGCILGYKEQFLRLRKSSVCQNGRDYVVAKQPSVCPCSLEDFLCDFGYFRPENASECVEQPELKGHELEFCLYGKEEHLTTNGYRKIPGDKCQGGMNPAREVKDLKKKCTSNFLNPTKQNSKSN
Procedure: as §1, §2, §3, §4, §5, §6, §7, §8, §9, §10, §11, §12, §13, §14

Row | Kd (Sortilin [1]; Form of Compound Free acid) | Kd (Sortilin [1]; Form of Compound Mesylate salt) | Kd (Sortilin [2]; Form of Compound Free acid) | Kd (Sortilin [2]; Form of Compound Mesylate salt) | SMILES
1 | 237 nM | 52 nM | 65 nM |  | CC(C)(C)CC[C@H](NCc1ccc2c(c1)COCC2)C(=O)O [Example 3, (S)-2-((isochroman-7-ylmethyl)amino)-5,5-dimethylhexanoic acid]
2 | 227 nM | 64.9 nM | 60 nM | 59.5 nM | C[C@@H](N[C@@H](CCC(C)(C)C)C(=O)O)c1ccc2c(c1)OCCC2 [Example 9]
3 | 120 nM | 221 nM | 258 nM | 258 nM | C[C@H](N[C@@H](CCC(C)(C)C)C(=O)O)c1ccc2c(c1)CCCO2 [Example 50]
4 | 384 nM | 133 nM |  | 129 nM | C[C@@H](N[C@@H](CCC(C)(C)C)C(=O)O)c1ccc2c(c1)CCCO2 [Example 52]
